Drawing on PubChem BioAssay (NCI), this text covers TGI for 13 molecules.

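Growth conditions: 96-well plates. Treatment: test compound, 48 hours, 5 concentrations. Analysis: linear interpolation between bracketing concentrations; unreached endpoints set to highest concentration. The concentration for full growth arrest is given as TGI.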

Some test systems named below: A498 renal; SNB-75 CNS; EKVX NSCLC; MDA-N; MDA-MB-231 breast; ACHN renal; SF-268 CNS; BT-549 breast; SF-295 CNS; HT29 colon; M14 melanoma; T-47D breast.
What all share (test): NCI-60 cell line screen, 48 h

With `c1ccc(OCc2nnc(CCCCCCCCc3nnc(COc4ccccc4)o3)o2)cc1`, the TGI with A498 renal is greater than 100 µM; with SNB-75 CNS, 83.4 µM; with EKVX NSCLC, greater than 100 µM; with MDA-N it was greater than 100 µM; in the assay on MDA-MB-231 breast it was greater than 100 µM; with ACHN renal, greater than 100 µM. The TGI in the assay on SF-268 CNS, in the assay on BT-549 breast, with SF-295 CNS, in the assay with HT29 colon and in the assay with M14 melanoma was greater than 100 µM throughout.

Take `Cc1cc(O)c(C(C)C)cc1C(=S)Nc1ccc(Cl)cc1`: the TGI is 29.7 µM in the assay on A498 renal; 25.3 µM in the assay with EKVX NSCLC; 23.7 µM in the assay with MDA-N; 25.7 µM in the assay with ACHN renal; 19.7 µM with SF-268 CNS; 30.7 µM in the assay with BT-549 breast. In addition, the TGI was 29.2 µM in the assay on T-47D breast, 28.3 µM with SF-295 CNS and 27.9 µM with HT29 colon.

Regarding `O=c1onc(Nc2ccccc2)n1-c1ccccc1`, the TGI in the assay with A498 renal, with SNB-75 CNS, in the assay on EKVX NSCLC, in the assay on MDA-N, in the assay on MDA-MB-231 breast and in the assay on ACHN renal was greater than 100 µM throughout. The TGI with BT-549 breast, with SF-295 CNS, in the assay on HT29 colon and in the assay on M14 melanoma was greater than 100 µM in each case.

Consider `CC1=NN2CCC(=O)N=C2S1`, for which the TGI with SNB-75 CNS, with EKVX NSCLC, in the assay with MDA-N, in the assay with MDA-MB-231 breast, in the assay on ACHN renal and in the assay with SF-268 CNS was greater than 100 µM in each case. Further, the TGI in the assay on BT-549 breast, in the assay on T-47D breast, with SF-295 CNS, in the assay with HT29 colon and in the assay with M14 melanoma was greater than 100 µM throughout.

As to `Cc1cc(S(=O)(=O)Nc2n[nH]c(Nc3ccccc3)n2)c(SSc2cc(Cl)c(C)cc2S(=O)(=O)Nc2n[nH]c(Nc3ccccc3)n2)cc1Cl`, the TGI in the assay with SNB-75 CNS, with EKVX NSCLC, with MDA-N, in the assay with MDA-MB-231 breast, in the assay on ACHN renal and with SF-268 CNS was greater than 100 µM throughout. Also, the TGI in the assay on BT-549 breast, in the assay with T-47D breast, in the assay with SF-295 CNS, in the assay with HT29 colon and with M14 melanoma was greater than 100 µM each time.

`COc1ccc(C2NC(N)=C(C#N)C3=C2C(C)CCC3)cc1OC` (configuration not stated): the TGI with SNB-75 CNS is 16.7 µM; in the assay on EKVX NSCLC, greater than 100 µM; in the assay with MDA-N, greater than 100 µM; in the assay on MDA-MB-231 breast, greater than 100 µM; with ACHN renal, greater than 100 µM; with SF-268 CNS, greater than 100 µM. Further, the TGI in the assay on BT-549 breast, in the assay on T-47D breast, in the assay on SF-295 CNS, in the assay with HT29 colon and in the assay with M14 melanoma was greater than 100 µM each time.

Take `Cc1ccc(S(=O)(=O)NC(=O)NC(CC(=O)O)C(=O)O)cc1` (configuration not stated): the TGI in the assay on SNB-75 CNS, in the assay with MDA-N, in the assay on MDA-MB-231 breast, with ACHN renal, in the assay on SF-268 CNS and in the assay on BT-549 breast was greater than 100 µM in each case. In addition, the TGI in the assay with T-47D breast, with SF-295 CNS, with HT29 colon and in the assay with M14 melanoma was greater than 100 µM in each case.

On to `CCCCCCCCCCOc1ccc(N=Nc2nnc(-c3ccc(OCCCCC)cc3)s2)cc1`, for which the TGI with A498 renal, in the assay on EKVX NSCLC, with MDA-N, in the assay with MDA-MB-231 breast, with ACHN renal and with SF-268 CNS was greater than 100 µM each time. Moreover, the TGI with BT-549 breast, in the assay with T-47D breast, with SF-295 CNS, with HT29 colon and in the assay with M14 melanoma was greater than 100 µM in each case.

On to `CCOC(=O)CN1C(=O)C(=O)N(c2ccc(OC)c3ccccc23)C1=O`, for which the TGI in the assay on SNB-75 CNS, in the assay on EKVX NSCLC, with MDA-N, with ACHN renal, in the assay with SF-268 CNS and in the assay with BT-549 breast was greater than 100 µM each time. Further, the TGI in the assay on T-47D breast, in the assay with SF-295 CNS, in the assay on HT29 colon and in the assay on M14 melanoma was greater than 100 µM in each case.

On to `O=[N+]([O-])c1ccc2nc(-c3ccc(Cl)cc3)[nH]c2c1`, for which the TGI with SNB-75 CNS was 68.5 µM; in the assay with EKVX NSCLC, 40.3 µM; in the assay on MDA-N, 51.1 µM; with MDA-MB-231 breast it was 81.5 µM; in the assay on ACHN renal, 67.9 µM; in the assay on SF-268 CNS, 37.5 µM. For the same molecule, the TGI in the assay with BT-549 breast stood at 64.6 µM; in the assay on T-47D breast, 55.7 µM; in the assay with SF-295 CNS, 42.7 µM; in the assay on HT29 colon it was 32.8 µM; with M14 melanoma, 34.5 µM.

`Cn1c2ccccc2c2c3c(c4c5ccccc5n(C)c4c21)C(=O)N(c1ccccc1)C3=O`: the TGI in the assay with A498 renal, with SNB-75 CNS, in the assay with EKVX NSCLC, in the assay on MDA-N, in the assay on MDA-MB-231 breast and with ACHN renal was greater than 100 µM throughout. The TGI in the assay with BT-549 breast, with T-47D breast, in the assay with SF-295 CNS, in the assay on HT29 colon and in the assay with M14 melanoma was greater than 100 µM each time.

In the case of `CC1=NN(c2nc(N)nc(-c3cc4ccccc4oc3=N)n2)C(C)(C)C1`, the TGI is 66.9 µM with A498 renal; 32.8 µM with EKVX NSCLC; 31.2 µM in the assay with MDA-N; 43.4 µM with MDA-MB-231 breast; 34.8 µM in the assay with ACHN renal; 36.7 µM with SF-268 CNS. The TGI was 47 µM in the assay with BT-549 breast; 34.3 µM in the assay on T-47D breast; 32.6 µM in the assay on SF-295 CNS; 40.2 µM in the assay on HT29 colon; 36 µM in the assay with M14 melanoma.

Regarding `CCN(CCC#N)C(=O)Nc1ccccc1`, the TGI in the assay with SNB-75 CNS, with EKVX NSCLC, with MDA-N, in the assay on MDA-MB-231 breast, in the assay on ACHN renal and in the assay with BT-549 breast was greater than 100 µM each time. Further, the TGI in the assay with T-47D breast, in the assay on SF-295 CNS, in the assay with HT29 colon and in the assay with M14 melanoma was greater than 100 µM each time.
